# In patent publication US9925263B2, “Liquid pharmaceutical formulations for injection comprising procaine and uses thereof” (EAGLE BIOLOGICS, INC., priority 2013, dated 2018):
# Legend:
# biosimilar AVASTIN® = experiment: Viscosity of aqueous solutions of biosimilar AVASTIN® with viscosity-lowering agents; format: physicochemical; conditions: 200 ± 5 mg/mL mAb, pH 7.0, 25° C.; [Salt] 0.25 M of anion; C & P viscometer
# TYSABRI® = experiment: Viscosity of aqueous solutions of TYSABRI® with viscosity-lowering agents; format: physicochemical; conditions: 230 ± 2 mg/mL TYSABRI; 0.25M agent; 25° C., pH 7.0
# Protocol: All viscosities of well-mixed aqueous mAb solutions were measured using either a mVROC microfluidic viscometer (RheoSense) or a DV2T cone and plate viscometer (Brookfield; “C & P”) after a 5 minute equilibration at 25° C. […] The mVROC viscometer was equipped with an “A” or “B” chip, each manufactured with a 50 micron channel. Typically, 0.10 mL of protein solution was back-loaded into a gastight microlab instrument syringe (Hamilton; 100 μL), affixed to the chip, and measured at multiple flow rates, approximately 20%, 40%, and 60% of the maximum pressure for each chip. […] An average absolute viscosity and standard deviation was then calculated from at least these three measurements. The C & P viscometer was equipped with a CPE40 or CPE52 spindle (cone angle of 0.8° and 3.0°, respectively) and 0.50 mL samples were measured at multiple shear rates between 2 and 400 s^−1. Specifically, samples were measured for 30 seconds each at 22.58, 24.38, 26.25, 28.13, 30, 31.88, 45, 67.5, 90, 112.5, 135, 157.5, 180, 202.5, 247, 270, 292.5, 315, 337.5, 360, 382, 400 s^−1, starting at a shear rate that gave at least 10% torque, and continuing until instrument torque reached 100%. An extrapolated zero-shear viscosity was then determined from a plot of dynamic viscosity versus shear rate for the samples measured on a DV2T cone and plate viscometer. The extrapolated zero-shear viscosities reported are the average and standard deviation of at least three measurements.
# (§2) Viscosities were measured using a RheoSense mVROC microfluidic viscometer equipped with an “A” or “B” chip.
# (§3) Subsequently, the aqueous drug product was purified, buffer exchanged, concentrated, dried, reconstituted, and analyzed as described in the same manner. Viscosities reported were measured on a RheoSense mVROC microfluidic viscometer.
# biosimilar ERBITUX® = experiment: Viscosity of aqueous solutions of biosimilar ERBITUX® with viscosity-lowering agents; conditions: pH 7.0; for Viscosity / Fold Reduction: 0.25M agent; for Fold Reduction: vs phosphate buffer
# Protocol: All viscosities of well-mixed aqueous mAb solutions were measured using either a mVROC microfluidic viscometer (RheoSense) or a DV2T cone and plate viscometer (Brookfield; “C & P”) after a 5 minute equilibration at 25° C. (unless otherwise indicated). The mVROC viscometer was equipped with an “A” or “B” chip, each manufactured with a 50 micron channel. Typically, 0.10 mL of protein solution was back-loaded into a gastight microlab instrument syringe (Hamilton; 100 μL), affixed to the chip, and measured at multiple flow rates, approximately 20%, 40%, and 60% of the maximum pressure for each chip. […] An average absolute viscosity and standard deviation was then calculated from at least these three measurements. The C & P viscometer was equipped with a CPE40 or CPE52 spindle (cone angle of 0.8° and 3.0°, respectively) and 0.50 mL samples were measured at multiple shear rates between 2 and 400 s^−1. […] An extrapolated zero-shear viscosity was then determined from a plot of dynamic viscosity versus shear rate for the samples measured on a DV2T cone and plate viscometer. The extrapolated zero-shear viscosities reported are the average and standard deviation of at least three measurements.
# First, Polysorbate 80 was removed using DETERGENT-OUT® TWEEN® Medi Columns (G-Biosciences). […] The collected protein solution was freeze-dried. The dried protein cakes, containing protein and buffer salts or agent, were reconstituted to a final volume of 0.15-1.3 mL. […] Reported protein concentrations represent the range of all protein samples included in each Table or Figure. Specifically, reported values are the median plus or minus half the range. Extrapolated zero-shear using an experimentally determined extinction coefficient of 1.4 L/g·cm and viscosities reported were measured on a DV2T cone and plate viscometer.
# The final concentration of CSAL upon reconstitution in an aqueous CSAL solution ranged from 0.25 M to 0.50 M.
# Specifically, 20 mM solutions of the viscosity-lowering agents of interest were used for buffer exchange, and the lyophilized cakes were reconstituted to 0.25 M of each viscosity-lowering agent. […] The sample was first aliquoted. […] The dried protein cakes, containing protein and viscosity-lowering agent (and a negligible amount of buffer salts) were reconstituted to a final volume of approximately 0.10 mL and viscosity-lowering agent concentration as previously described.
# First, Polysorbate was removed from the commercially obtained mAb solutions.
# Specifically, 20 mM solutions of the salts of interest were used for buffer exchange, and the lyophilized cakes were reconstituted to contain 0.25 M of each agent. Viscosities were measured using either a RheoSense mVROC microfluidic viscometer equipped with an “A” or “B” chip or a DV2T cone and plate viscometer.
# as §3
# REMICADE® = experiment: Viscosity of aqueous solutions of […]® with viscosity-lowering agents; format: physicochemical; conditions: 0.25M agent, 25° C., pH 7.0
# Protocol: (§1) (unless otherwise indicated).
# An extrapolated zero-shear viscosity was determined from a plot of absolute viscosity versus shear rate.
# Following reconstitution, the viscosity of each solution was measured using the microfluidic viscometer as described in previous examples. The solutions were then back-loaded into 1 mL BD insulin syringes with 27, 29, or 31 gauge fixed needles. The force required to extrude the concentrated […]® solutions was then measured using an Instron at a rate of displacement equivalent to a fluid flow rate of 3 mL/min. The expelled solution was collected from the syringe and analyzed by size-exclusion chromatography.
# HERCEPTIN® = experiment: Viscosity of aqueous solutions of HERCEPTIN® with viscosity-lowering agents; format: physicochemical; conditions: 0.25M salt, 25° C., pH 7.0
# Protocol: All viscosities of well-mixed aqueous mAb solutions were measured using either a mVROC microfluidic viscometer (RheoSense) or a DV2T cone and plate viscometer (Brookfield; “C & P”) after a 5 minute equilibration at 25° C. (unless otherwise indicated). The mVROC viscometer was equipped with an “A” or “B” chip, each manufactured with a 50 micron channel. Typically, 0.10 mL of protein solution was back-loaded into a gastight microlab instrument syringe (Hamilton; 100 μL), affixed to the chip, and measured at multiple flow rates, approximately 20%, 40%, and 60% of the maximum pressure for each chip. […] An average absolute viscosity and standard deviation was then calculated from at least these three measurements. The C & P viscometer was equipped with a CPE40 or CPE52 spindle (cone angle of 0.8° and 3.0°, respectively) and 0.50 mL samples were measured at multiple shear rates between 2 and 400 s^−1. Specifically, samples were measured for 30 seconds each at 22.58, 24.38, 26.25, 28.13, 30, 31.88, 45, 67.5, 90, 112.5, 135, 157.5, 180, 202.5, 247, 270, 292.5, 315, 337.5, 360, 382, 400 s^−1, starting at a shear rate that gave at least 10% torque, and continuing until instrument torque reached 100%. An extrapolated zero-shear viscosity was then determined from a plot of dynamic viscosity versus shear rate for the samples measured on a DV2T cone and plate viscometer. The extrapolated zero-shear viscosities reported are the average and standard deviation of at least three measurements.
# as §2
# Viscosities reported were measured on a RheoSense mVROC microfluidic viscometer.
# branded ERBITUX® = experiment: Viscosity of aqueous solutions of branded ERBITUX®; format: physicochemical; conditions: 224 ± 4 mg/mL mAb; phosphate buffer or 0.25M BSAA; 25° C., pH 7.0
# From the text: as §1
compound,measurement,setting,value
"N=C(N)NCCC[C@H](N)C(=O)O.O=S(=O)(O)c1ccccc1 [BSAA, benzenesulfonic acid arginine]",Viscosity,biosimilar AVASTIN®,75.3 ± 0.4 cP
same,Viscosity,TYSABRI®,34.9 ± 1.3 cP
same,Viscosity,"biosimilar ERBITUX®; 222 ± 5 mg/mL mAb, 25° C.",53.4 ± 5.5 cP
same,Biosimilar ERBITUX ® viscosity,"biosimilar ERBITUX®; 224 ± 4 mg/mL mAb, phosphate buffer or 0.25M BSAA, 25° C.",53.4 ± 5.5 cP
same,Viscosity,"biosimilar ERBITUX®; 225 ± 5 mg/mL mAb, 20° C.",85.2 ± 0.6 cP
same,Viscosity,"biosimilar ERBITUX®; 225 ± 5 mg/mL mAb, 25° C.",61.3 ± 0.9 cP
same,Viscosity,"biosimilar ERBITUX®; 225 ± 5 mg/mL mAb, 30° C.",50.5 ± 1.9 cP
same,Fold Reduction,"biosimilar ERBITUX®; 222 ± 5 mg/mL mAb, 25° C.",~21 fold
same,Fold Reduction,"biosimilar ERBITUX®; 222 ± 5 mg/mL mAb, 25° C., listed as BSA Arginine",21.2 fold
same,Viscosity,REMICADE®; 166 ± 4 mg/mL REMICADE,26.7 ± 1.2 cP
same,Viscosity,REMICADE®; 222 ± 6 mg/mL REMICADE,92.3 ± 1.4 cP
same,Viscosity,HERCEPTIN®; 254 ± 3 mg/mL HERCEPTIN,75.4 ± 5.0 cP
same,Viscosity,HERCEPTIN®; 270 ± 6 mg/mL HERCEPTIN,115 ± 6 cP
same,Branded ERBITUX ® viscosity,branded ERBITUX®,44.1 ± 0.5 cP
